# Experimental data: ChEMBL document CHEMBL5518163, “Brazilin-7-acetate, a novel potential drug of Parkinson's disease, hinders the formation of α-synuclein fibril, mitigates cytotoxicity, and decreases oxidative stress” (Eur J Med Chem, 2024)
# Activity calls are given as the source filed them. The rule behind the calls is not given here.
# How the values were obtained:
# [1] = system: PC-12; test: Cytotoxicity against rat PC12 cells assessed as survival rate at 50 to 100 uM incubated for 10 days by MTT assay relative to control; type: functional; details: dose 50-100 µM, time 10 day
# [2] = system: PC-12; test: Cytotoxicity against rat PC12 cells assessed as survival rate at 50 uM incubated for 10 days by MTT assay relative to control; type: functional; details: time 10 day
# [3] = system: PC-12; test: Cytotoxicity against rat PC12 cells assessed as survival rate at 100 uM incubated for 10 days by MTT assay relative to control; type: functional; details: time 10 day
# [4] = system: PC-12; test: Cytotoxicity against rat PC12 cells assessed as survival rate at 25 uM incubated for 10 days by MTT assay relative to control; type: functional; details: time 10 day
# [5] = system: PC-12; test: Protection against alpha-synuclein induced rat PC12 cells death assessed as survival rate at alpha-synuclein to compound molar ratio 1:1 pre-incubated with alpha-synuclein for 10 days followed by cell addition and measured after 48 hrs by MTT assay (reference value: 58.07%); type: functional
# [6] = system: Caenorhabditis elegans; test: In vivo inhibition of alpha-synuclein aggregation in transgenic Caenorhabditis elegans NL5901 expressing YFP-tagged alpha-synuclein assessed as reduction in number of alpha-synuclein aggregates plaques at 100 uM incubated for 5 days by fluorescence based confocal microscope analysis; type: functional; details: time 5.0 day
# [7] = In vivo inhibition of alpha-synuclein aggregation in transgenic Caenorhabditis elegans NL5901 expressing YFP-tagged alpha-synuclein assessed as quantity of plaques at 100 uM on day 10 by fluorescence based confocal microscope analysis (reference value: 31.5); type: functional; details: time 5 day
# [8] = system: Caenorhabditis elegans; test: Improvement in movement disorder in transgenic Caenorhabditis elegans NL5901 expressing YFP-tagged alpha-synuclein assessed as increase in number of bends at 100 uM measured on day 5 (reference value: 29.5); type: functional; details: time 5 day
# [9] = system: Caenorhabditis elegans; test: Inhibition of oxidative stress in Caenorhabditis elegans NL5901 expressing YFP-tagged alpha-synuclein assessed as decrease in ROS level by measuring average fluorescence intensity at 100 uM incubated for 5 days by DHE staining based confocal laser scanning microscope analysis (reference value: 1600%); type: functional; set-up: scale not given: the % may be the effect or the level left; details: time 5 day
# [10] = system: Caenorhabditis elegans; test: Improvement in movement disorder in transgenic Caenorhabditis elegans NL5901 expressing YFP-tagged alpha-synuclein assessed as increase in number of bends at 100 uM measured on day 10 (reference value: 11.1); type: functional; details: time 5 day
# [11] = In vivo inhibition of alpha-synuclein aggregation in transgenic Caenorhabditis elegans NL5901 expressing YFP-tagged alpha-synuclein assessed as quantity of plaques at 100 uM on day 5 by fluorescence based confocal microscope analysis (reference value: 24.7); type: functional; details: time 5 day
# [12] = system: Caenorhabditis elegans; test: Improvement in life span of transgenic Caenorhabditis elegans NL5901 expressing YFP-tagged alpha-synuclein assessed as increase in lifespan at 100 uM (reference value: 16 day); type: functional; details: time 5 day
# [13] = system: Caenorhabditis elegans; test: Antioxidant activity in transgenic Caenorhabditis elegans NL5901 expressing YFP-tagged alpha-synuclein assessed as increase in SOD activity at 100 uM incubated for 5 days (reference value: 33.32 %); type: functional; details: time 5 day
# [14] = system: Caenorhabditis elegans; test: Improvement in life span of transgenic Caenorhabditis elegans NL5901 expressing YFP-tagged alpha-synuclein assessed as decrease in death rate at 100 uM incubated for 5 days; type: functional, organism-based; details: time 5.0 day
# [15] = system: Caenorhabditis elegans; test: Improvement in life span of transgenic Caenorhabditis elegans NL5901 expressing YFP-tagged alpha-synuclein assessed as increase in average lifespan at 100 uM (reference value: 8.52 day); type: functional; details: time 5 day
# [16] = system: Caenorhabditis elegans; test: Inhibition of oxidative stress in transgenic Caenorhabditis elegans NL5901 expressing YFP-tagged alpha-synuclein assessed as reduction in ROS level by measuring fluorescence intensity at 100 uM incubated for 5 days by DHE staining based confocal laser scanning microscope analysis; type: functional, organism-based; details: time 5.0 day
# [17] = system: Caenorhabditis elegans; test: Antioxidant activity against transgenic Caenorhabditis elegans NL5901 expressing YFP-tagged alpha-synuclein assessed as increase in lipid content by measuring fluorescence intensity at 100 uM incubated for 5 days by Nile Red staining based confocal laser scanning microscope analysis (reference value: 41.32 %); type: functional; details: time 5 day
# [18] = system: PC-12; test: Protection against alpha-synuclein induced rat PC12 cells death assessed as survival rate at alpha-synuclein to compound molar ratio 1:0.5 pre-incubated with alpha-synuclein for 10 days followed by cell addition and measured after 48 hrs by MTT assay (reference value: 58.07%); type: functional
# [19] = system: Caenorhabditis elegans; test: Antioxidant activity against transgenic Caenorhabditis elegans NL5901 expressing YFP-tagged alpha-synuclein assessed as increase in GSH-PX activity at 100 uM incubated for 5 days (reference value: 46.36 %); type: functional; details: time 5 day
# [20] = system: Caenorhabditis elegans; test: Antioxidant activity against transgenic Caenorhabditis elegans NL5901 expressing YFP-tagged alpha-synuclein assessed as decrease in MDA content at 100 uM incubated for 5 days (reference value: 288.94 %); type: functional; set-up: scale not given: the % may be the effect or the level left; details: time 5 day
# [21] = system: Caenorhabditis elegans; test: In vivo inhibition of alpha-synuclein aggregation in transgenic Caenorhabditis elegans NL5901 expressing YFP-tagged alpha-synuclein at 100 uM under L4 stage to adult stage on day 5 and 10 by fluorescence based confocal microscope analysis; type: functional; details: time 5.0 day
# [22] = system: PC-12; test: Protection against alpha-synuclein induced rat PC12 cells death assessed as survival rate at alpha-synuclein to compound molar ratio 1:2 pre-incubated with alpha-synuclein for 10 days followed by cell addition and measured after 48 hrs by MTT assay (reference value: 58.07%); type: functional
# [23] = biological target: Alpha-synuclein (Homo sapiens) (UniProt P37840); test: Inhibition of recombinant alpha-synuclein (unknown origin) fibrillation at 1 to 20 uM measured after 30 mins by ThT fluorescence based spectrofluorometer analysis relative to control; details: dose 1-20 µM
# [24] = system: Caenorhabditis elegans; test: Antioxidant activity against transgenic Caenorhabditis elegans NL5901 expressing YFP-tagged alpha-synuclein assessed as increase in lipid content relative to control; type: functional
# [25] = system: Caenorhabditis elegans; test: Antioxidant activity against transgenic Caenorhabditis elegans NL5901 expressing YFP-tagged alpha-synuclein assessed as decrease in MDA content relative to control; type: functional; set-up: scale not given: the % may be the effect or the level left
smiles,measurement,setting,value
Oc1ccc2c(c1)OC[C@]1(O)Cc3cc(O)c(O)cc3[C@H]21 [BRAZILIN],Activity,[1],~20%
same,Activity,[2],66.74%
same,Activity,[3],60.46%
same,Activity,[4],82.15%
CC(=O)Oc1ccc2c(c1)OC[C@]1(O)Cc3cc(O)c(O)cc3[C@H]21,Activity,[5],85.21%
same,inhibition,[6],Active
same,Activity,[7],16.2
same,Activity,[8],8.4
same,Activity,[9],723.6%
same,Activity,[10],7.6
same,Activity,[11],7.2
same,ILS,[12],19 days
same,Activity,[2],66.74%
same,Activity,[3],60.46%
same,Activity,[13],60%
same,Activity,[4],82.15%
same,Activity,[14],Active
same,ILS,[15],10.35 days
same,Activity,[16],Active
same,Activity,[17],57.69%
same,Activity,[18],72.26%
same,Activity,[19],81.81%
same,Activity,[20],133%
same,inhibition,[21],Active
same,Activity,[22],93.51%
COc1ccc(-c2coc3cc(O)ccc3c2=O)cc1O,inhibition,[23],82.3%
O=C(/C=C/c1ccc(O)c(O)c1)O[C@@H]1C[C@](O)(C(=O)O)C[C@@H](O)[C@H]1O [CHLOROGENIC ACID],Activity,[24],~5%
same,Activity,[25],~50%
